In US8399466B2, “Composition for regenerative treatment of cartilage disease” (Mitsubishi Tanabe Pharma Corporation, priority 2001, dated 2013):

Tests used:
articular chondrocytes = test: Increase of matrix production of articular chondrocytes (Alcian blue staining of proteoglycan); type: cell-based, rabbit; conditions: for Proteoglycan Production (%): cultivation until day 5, vehicle = 100; for matrix production promoting activity: summary of Table 1
Procedure: Four NZW line rabbits (Kitayama Labes., Co Ltd.; male; 4-week-old) were sacrificed with bleeding under ether anesthesia and femur knee joints were collected aseptically. The collected knee joints were stored in phosphate buffer (pH 7.2) containing 0.2% glucose and only the cortical layer of knee joint was scrapped with a surgical knife into a 50 ml tube containing phosphate buffer (pH 7.2) containing 0.2% glucose. The collected knee joint cortical layer was cut into as small sections as possible on a dish with a razor and shaken at 37° C. for 15 minutes in phosphate buffer containing 0.2% glucose, supplied with 10× trypsin-ethylenediamine tetraacetic acid (EDTA)·4 Na salt (GIBCO; Cat. No. 15400-054) (50 ml, with 100 mg of trypsin and 40 mg of EDTA·4Na; pH 7.2). After shaking, the sample was centrifuged (1,400 rpm) to collect precipitates, and the precipitates were washed twice with 40 ml of phosphate buffer containing 0.2% glucose. The washed precipitates were combined with 40 ml of serum-free α-minimum essential medium (MEM: GIBCO; Cat: No. 12571-063) containing 60 mg of collagenase for cell diffusion (Wako Pure Chemical Industries, Ltd., 034-10533) and transferred to a 100 ml beaker containing a sterilized stirrer bar. Under stirring with the stirrer bar, the collagenase digestion was carried on for about 1 hour in a CO2 incubator at 37° C. Cartilage fragments were removed from the collagenase-treated cells using a […] Cell Strainer ([FALCON; Cat. No. 2340]). To the residual treated cells was added 10 ml of α-MEM medium containing 10% fetal calf serum (FCS), and centrifuged (1,400 rpm). The precipitates were washed with 10% FCS-αMEM medium twice, suspended in appropriate volume of the same medium and the resultant suspension was seeded into collagen type II (Wako Pure Chemical Industries, Ltd., 033-13901)-coated plates (48 well) at 20,000 cells/well. On the next day, the medium was replaced with 10% FCS-αMEM medium.
When cells reached to confluent after the medium exchange procedure above, the medium for test group was replaced with test compound-containing medium (including 0.1% dimethylsulfoxide as a vehicle). As a medium to which a test compound is added, 10% FCS-αMEM medium containing 0.2 mM ascorbic acid was used. The day on which test compound-containing medium was added for the first time was defined as “day 1”. The medium exchange with the same medium was again conducted at day 3 and the cultivation continued until day 5. As to the control group, the medium was exchanged at the same time using the same medium as the test group except that it is free of test compound (containing vehicle only), and the cultivation was carried out in the same manner. After completion of cultivation, the supernatant was removed from the culture medium. Cells were fixed by addition of 0.25 ml of neutral buffer containing 4% paraformaldehyde and incubation for 2 hours. Cells were washed three times with 1 ml of phosphate buffer (pH 7.2) and then stained for 4 hours with 0.1% Alcian blue 8GX (Sigma; A3157) dissolved in 0.1 M hydrochloric acid, which Alcian blue selectively stains cartilage matrix proteoglycan. After staining, the cells were washed 3 times with 1 ml of phosphate buffer (pH 7.2). Alcian blue which had stained cartilage matrix was dissolved with 0.25 ml of aqueous 6 M guanidine hydrochloride solution and a portion of the solution was used to determine the absorbance at 620 nm. The amounts of Alcian blue used for staining was calculated from the absorbance, which in turn was used for the estimation of the amount of matrix (proteoglycan).

type II collagen gene = test: Expression of gene encoding cartilage matrix protein (Northern hybridization), type II collagen; type: cell-based, rabbit; conditions: cultured 4 days, control = 100%
Procedure: (§1) Total RNA was extracted with ISOGEN (Nippon Gene Co., Ltd.) from rabbit knee articular chondrocytes cultured for 4 days according to the same manner as Experimental Example 1 in the presence of Compound (1) at a final concentration of 1×10^−4 M or 1×10^−5 M, and 15 μg of the total RNA was dissolved in 4.5 μl of a sterilized water. This solution was combined with 2 μl of 5×MOPS buffer, 3.5 μl of formaldehyde and 10 μl of formamide, and denatured at 90° C. for 15 minutes. The mixture was then electrophoresed on 1% agarose gel in the presence of formaldehyde. After completion of electrophoresis, RNA was transferred to a nylon membrane (Amersham Pharmacia Biotech) overnight by capillary method. The RNA was fixed to the nylon membrane by UV crosslinking and subjected to prehybridization at 60° C. for 2 hours in 50 ml of hybridization solution (6×SSC, 5×Denhart's solution, 0.5% SDS, 100 μg/ml heat-denatured salmon sperm DNA, free of 50% formamide).
(§2) Then, DNA probes of mouse type II collagen gene and human aggrecan. […] The nylon membrane was subjected to an autoradiography and exposed to X-ray film using LAS-1000 (Fuji Photo Film Co., Ltd.) A relative amount of each RNA was measured using Image Gause (Fuji Photo Film Co., Ltd.) and corrected with […] (internal RNA: internal control). The gene expression rate in test group was calculated by assuming that in control group as 100%.

aggrecan gene = test: Expression of gene encoding cartilage matrix protein (Northern hybridization), aggrecan; type: cell-based, rabbit; conditions: cultured 4 days, control = 100%
Procedure: as §1, §2

[1] = system: cAMP hydrolytic PDE expressed in human articular cartilage (fraction Nos. 28-30); test: Inhibition of cAMP hydrolyzing activity of fraction Nos. 28-30 of human articular cartilage extract; type: biochemical
Procedure: From the human knee articular cartilage was isolated on surgery of osteoarthrosis patients. Cartilage portion was scrapped with a surgery knife, washed with ice-cold phosphate buffer and stored at −80° C. The cartilage tissues were milled at −80° C. and then, scattered into pieces with homogenizer (Kinematica A.G., Polytron) in ice-cold homogenization buffer (20 mM Tris-HCl, pH 8.0, 1 mM ethylene glycol bis(β-aminoethylether)-N,N,N′,N′-tetraacetic acid, 1 mM dithiothreitol, 10 μg/ml leupeptin, 5 mM benzamidine, 0.2 mM phenylmethylsulfonyl fluoride, 1 mM sodium azide and 5 mM mercaptoethanol). The resultant homogenate was centrifuged (100,000×g; 30 minutes) to separate supernatant.
The above supernatant was loaded on a Mono Q Sepharose High Performance column (Amersham Pharmacia Biotech) equilibrated with elution buffer (20 mM Tris-HCl, pH 8.0, 1 mM ethylene glycol bis(β-aminoethylether)-N,N,N′,N′-tetraacetic acid, 1 mM dithiothreitol, 2 μg/ml leupeptin, 5 mM benzamidine). After washing the column with 20 ml of elution buffer, proteins were eluted into 1 ml fractions by aqueous sodium chloride solution (concentration gradient: 0 to 1000 mM, 70 ml) under ice-cooling. Each fraction was subjected to the determination of hydrolytic activity (PDE activity) toward cAMP and cGMP as a substrate.
The determination of PDE activity was performed by a radio-labeled nucleic acid assay. That is, the reaction was initiated by adding from 10 to 50 μl of elution fraction to 500 μl of assay buffer (50 mM Tris-HCl, pH 8.0, 5 mM magnesium chloride, 4 mM 2-mercaptoethanol) containing 1 μM of unlabeled cAMP and 22 nM of [^3H]-cAMP (Amersham Pharmacia Biotech).
After incubation at 37° C. for 30 minutes, the reaction was quenched by boiling for 1.5 minutes. Then, 100 μl of 1 mg/ml Crtalus atrox snake venom was added and incubated at 37° C. for 30 minutes. After addition of 500 μl of methanol, the reaction solution was subjected to Dowex column (1×8-400). To each eluate was added a liquid scintillation cocktail and the radio activity was measured.
The inhibitory activity of PDE4 inhibitor on fraction Nos. 28-30 containing potent cAMP hydrolyzing activity was measured according to the above-mentioned radio-labeled nucleic acid assay. The test compounds are Compound (1), Compound (2), Compound (11), Compound (44) and Compound (27).

[2] = system: rabbit articular chondrocytes; test: Matrix production of rabbit articular chondrocytes in the presence of IL-1; type: cell-based; conditions: 1 × 10^−6 M; IL-1β 1 ng/ml; until day 3; vehicle = 100
Procedure: Four NZW line rabbits (Kitayama Labes., Co Ltd.; male; 4-week-old) were sacrificed with bleeding under ether anesthesia and knee joints of femur side were collected aseptically. Only the cortical layer was scrapped with a surgical knife in phosphate buffer (pH 7.2) containing 0.2% glucose and then placed into a 50 ml tube containing phosphate buffered saline containing 0.2% glucose. The collected knee joint cortical layer was cut into as small sections as possible on a dish with a razor, combined with 50 ml of phosphate buffer (100 mg trypsin, 40 mg EDTA·4 Na; pH 7.2) containing 0.2% glucose, supplied with 10× trypsin-ethylenediamine tetraacetic acid tetra sodium salt (EDTA·4Na: GIBCO; Cat. No. 15400-054) and shaken at 37° C. for 15 minutes.
After shaking, the precipitates were collected by centrifugation (1,400 rpm) and washed twice with 40 ml of phosphate buffer (pH 7.2) with 0.2% glucose.
To the washed precipitates was added 40 ml of α-minimum essential medium (MEM: GIBCO; Cat. No. 12571-063) containing 60 mg of collagenase for cell diffusion (Wako Pure Chemical Industries, Ltd., 034-10533) and antibiotics (200 U/ml penicillin G and 200 μg/ml streptomycin sulfate) (GIBCO; Cat. No. 15140-122), and the mixture was transferred to a 100 ml beaker containing a sterilized stirrer bar.
The incubation was conducted in a CO2 incubator at 37° C. for 30 minutes under stirring with a stirrer bar. Deoxyribonuclease I (Takara Shuzo Co., LTD.; Cat. No. 2210A) was then added at a concentration of 70 U/ml. The cultivation was conducted under the same condition for another 30 minutes. The supernatant of the culture was collected in another vessel and the remaining cartilage slips were then cultured again for about 30 minutes in freshly prepared α-minimum essential medium containing 60 mg of collagenase and 70 U/m1 deoxyribonuclease I.
To the previously collected culture supernatant and the last culture, from which cartilage slips had been removed using a 40 μm Cell Strainer (FALCON; Cat. No. 2340), 10 ml of α-minimum essential medium (MEM: GIBCO; Cat. No. 12571-063) containing 10% fetal calf serum (GIBCO Cat. No. 10099-141) and antibiotics (200 U/ml penicillin G and 200 μg/ml streptomycin sulfate) (GIBCO; Cat. No. 15140-122) was added and centrifuged (1,400 rpm, 10 minutes).
The precipitates were washed twice with α-minimum essential medium containing 10% fetal calf serum and antibiotics, suspended with an appropriate volume of the same medium, and seeded into 48-well plates (20,000 cells/well). […]
After staining, the cells were washed 3 times with 1 ml of phosphate buffer (pH 7.2). Alcian blue which had stained cartilage matrix was dissolved with 0.25 ml of 6 M aqueous guanidine hydrochloride solution and a portion of which was used to determine the absorbance at 620 nm. […]

SMILES	Proteoglycan Production (%) (articular chondrocytes; 1 × 10^−5 M)	matrix production promoting activity (articular chondrocytes)	Proteoglycan Production (%) [2] [%]	Proteoglycan Production (%) (articular chondrocytes; 1 × 10^−6 M)	other results
CCOc1cc2cc(CO)c(CO)c(-c3ccn(CCOC)c(=O)c3)c2cc1OCC [Compound (1)]	133	exert matrix production promoting activity			Proteoglycan Production (%) (articular chondrocytes; 1 × 10^−4 M): 144%; Expression of Type II collagen gene (%) (type II collagen gene; 10^−4 M): 406%; Expression of Type II collagen gene (%) (type II collagen gene; 10^−5 M): 278%; Expression of aggrecan gene (%) (aggrecan gene; 10^−4 M): 4262%; Expression of aggrecan gene (%) (aggrecan gene; 10^−5 M): 2693%; inhibition of the hydrolytic activity of the fraction ([1]; fraction Nos. 28-30, FIG. 4): inhibits the hydrolytic activity of the fraction strongly; IC50 for fraction(s) ([1]; method of Journal of Medicinal Chemistry, vol. 42, 1088-1099 (1999), values only in FIG. 4): consistent with the IC50 of PDE4 inhibition activity described in the same literature
COc1cc2c(cc1OC)C(c1ccnc(-n3ccc4c(OCCN5CCOCC5)cccc4c3=O)c1)=N[C@H](CO)C2 [Compound No. 52]			209		
COc1ccc(/C(C)=N/OC(N)=O)cc1OC1CCCC1 [Compound (9)]	138	exert matrix production promoting activity		128	
COc1ccc([C@]2(C#N)CC[C@H](C(=O)O)CC2)cc1OC1CCCC1 [Compound (27)]	131	exert matrix production promoting activity		129	
COc1ccc([C@H](Cc2ccncc2)c2ccccc2)cc1OC1CCCC1 [Compound (21)]	120	exert matrix production promoting activity		115	
COc1cc2cc(CO)c(CO)c(-c3ccnc(-n4ccc5ccccc5c4=O)c3)c2cc1OC [Compound No. 56]			168		
